Measured values published in patent US10772882B2, “Pulmonary hypertension preventative or therapeutic agent containing crude drug” (TOHOKU UNIVERSITY, priority 2016, dated 2020).

What was measured:
[1] = system: transcription factor NF-κB; details: Non-patent Literature 4 and 5; cited from earlier work
[2] = system: pulmonary artery smooth muscle cells; details: Non-patent Literature 5; cited from earlier work
[3] = system: pulmonary artery smooth muscles derived from patients with pulmonary arterial hypertension; assay: MTT assay of cell proliferation of pulmonary artery smooth muscle cells from patients; assay type: cell-based, human; details: for suppressive effect on proliferation of pulmonary artery smooth muscle cells: final concentration 5 μM, same method as Example 1, data not shown
Text: The preventive or therapeutic agent for pulmonary hypertension of the present invention prevents or treats and ameliorates pulmonary hypertension by at least suppressing excessive proliferation of pulmonary artery smooth muscle cells. Accordingly, the present invention also provides a suppressor for excessive proliferation of pulmonary artery smooth muscle cells containing emetine or a salt thereof. […] However, emetine serving as the active ingredient of the present invention is a compound quite different in structure from IMD-0354 described above. Further, the inventors of the present invention examined N-p-tosyl-L-phenylalanine chloromethyl ketone, caffeic acid phenethyl ester, and Nα-p-tosyl-L-lysine chloromethyl ketone hydrochloride serving as compounds known to have NF-κB-inhibiting actions for their suppressive effects on the proliferation of pulmonary artery smooth muscle cells derived from patients with pulmonary hypertension by the same method as that described in Example 1 to be described later except that each of these compounds was added so that its final concentration was 5 μM. […] Also from such viewpoints, the suppressive effect of emetine on excessive proliferation of pulmonary artery smooth muscle cells and the preventive or therapeutic effect of emetine on pulmonary hypertension in the present invention are unpredictable from the related art. The active ingredient, dosage form, dose, and the like of the suppressor for excessive proliferation of pulmonary artery smooth muscle cells are the same as those of the preventive or therapeutic agent for pulmonary hypertension.
Pulmonary artery smooth muscles derived from patients with pulmonary arterial hypertension were treated with 1 nmol/L to 5 μmol/L emetine solutions (the emetine solutions were prepared with distilled water), and were cultured for 0 hours and 48 hours, followed by an MTT assay to assess cell proliferation rates. Specifically, smooth muscle cells were seeded in 96-well plates at 5,000 cells/well, and 24 hours after the seeding, emetine was added so that its final concentrations were adjusted to from 1 nmol/L to 5 μmol/L. The results are shown in FIG. 1.

[4] = system: monocrotaline-induced pulmonary hypertension model; assay: monocrotaline-induced pulmonary hypertension model; assay type: in vivo, rats (SD rats); details: 0.01 mg/kg or 0.05 mg/kg orally daily for 3 weeks after 60 mg/kg monocrotaline s.c.; vs control group; FIG. 2
Protocol: In vivo tests using pulmonary hypertension animal models were performed on emetine. Specifically, first, the influence of emetine on a monocrotaline-induced pulmonary hypertension model was investigated. A monocrotaline solution used for the production of the pulmonary hypertension model was prepared by dissolving monocrotaline with 1 mol/L hydrochloric acid and then adjusting the pH to 7.4 through titration with 1 mol/L sodium hydroxide using a pH meter. An emetine solution was prepared with distilled water. The monocrotaline-induced pulmonary hypertension model was produced by subcutaneously injecting 6-week-old rats (SD rats, n=13) with 60 mg/kg monocrotaline. After the subcutaneous injection with monocrotaline, the rats were orally administered 0.01 mg/kg or 0.05 mg/kg emetine daily for 3 weeks. A vehicle group was sacrificed 3 weeks after the administration of distilled water to measure right ventricular systolic pressure with Mikro-Tip Catheter transducers 2F (Millar). In addition, after formalin fixation, the right ventricle was removed from the left ventricle to measure a right ventricle/(left ventricle plus septum) weight ratio. Then, the extent of pulmonary hypertension was assessed on the basis of those results.

SU5416/Hypoxia model = assay: SU5416/Hypoxia pulmonary hypertension model; assay type: in vivo, rats (SD rats); details: 0.01 mg/kg or 0.05 mg/kg orally daily, week 8 to week 11 after SU5416; vs control group; FIG. 3
Protocol: In addition, an in vivo test using an SU5416/Hypoxia model was also performed. Specifically, first, an SU5416 (semaxanib) solution used for the production of the model was prepared by dissolving SU5416 using carboxy methyl cellulose (CMC). An emetine solution was prepared in the same manner as described above.
Six-week-old rats (SD rats, n=9) were administered 20 mg/kg SU5416 and then bred in a hypoxic chamber using a hypoxicator to be exposed to hypoxia (oxygen concentration: from 8% to 12%) for 3 weeks and then to normoxia. Then, the rats were orally administered 0.01 mg/kg or 0.05 mg/kg emetine daily for a period from the first day of week 8 after the SU5416 administration to the final day of week 11, and were sacrificed on the final day of week 11. Then, the extent of pulmonary hypertension was assessed in the same manner as in the monocrotaline-induced pulmonary hypertension model.

For `O=C(Nc1cc(C(F)(F)F)cc(C(F)(F)F)c1)c1cc(Cl)ccc1O` [IMD-0354, N-[3,5-bis(trifluoromethyl)phenyl]-5-chloro-2-hydroxybenzamide], the NF-κB inhibition [1] is listed as “has an NF-κB-inhibiting action” and the “proliferation of pulmonary artery smooth muscle cells” value [2] is listed as “suppresses the proliferation of pulmonary artery smooth muscle cells”.

With `Cc1ccc(S(=O)(=O)N[C@@H](Cc2ccccc2)C(=O)CCl)cc1` [N-p-tosyl-L-phenylalanine chloromethyl ketone] the “suppressive effect on proliferation of pulmonary artery smooth muscle cells” value (shortened to “suppressive effect on proliferation”) [3] was “not sufficiently suppressed”.

With `Cc1ccc(S(=O)(=O)N[C@@H](CCCCN)C(=O)CCl)cc1.Cl` [Nα-p-tosyl-L-lysine chloromethyl ketone hydrochloride] the “suppressive effect on proliferation” value [3] was “not sufficiently suppressed”.

For `O=C(/C=C/c1ccc(O)c(O)c1)OCCc1ccccc1` [caffeic acid phenethyl ester], the “suppressive effect on proliferation” value [3] was “not sufficiently suppressed”.

For `CC[C@H]1CN2CCc3cc(OC)c(OC)cc3[C@@H]2C[C@@H]1C[C@H]1NCCc2cc(OC)c(OC)cc21` [emetine], the “right ventricle/(left ventricle plus septum) weight ratio” value [4] was “suppressed”, the “right ventricular systolic pressure” value [4] was “suppressed” and the “cell proliferation rate (MTT assay)” value ([3]; emetine 1 nmol/L to 5 μmol/L, cultured 48 hours, FIG. 1) was “suppressed proliferation of the pulmonary artery smooth muscles derived from patients with pulmonary arterial hypertension in a concentration-dependent manner”. For the same molecule, the NF-κB inhibition [1] was “known to inhibit a transcription factor NF-κB”, the “right ventricle/(left ventricle plus septum) weight ratio” value (SU5416/Hypoxia model) was “alleviated” and the “right ventricular systolic pressure” value (SU5416/Hypoxia model) was “alleviated”.
